Source: PubChem BioAssay AID270 (DTP/NCI, 2004)
Several values for one entry are separate records, joined by “and”; a condition that tells them apart may be missing. Equal values may be shown once. Results filed as inconclusive are left out.

Tested on: BDF1 mice, s.c. Lewis lung carcinoma, T/C %
Assay: NCI In Vivo Anticancer Drug Screen. Data for tumor model Lewis Lung Carcinoma (subcutaneous) in B6D2F1 (BDF1) mice
Summary of the method: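 Tumor-bearing mice were treated with test compound, and either survival or tumor size was recorded. Values are the treated-group measurement divided by that of the vehicle-treated control group.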

[1] = endpoint: mean tumor weight, dose: 25.0 mg/kg/injection, schedule: Q01DX011 (sc), vehicle: steriod suspending solution, higher = larger tumour
[2] = endpoint: mean tumor weight, dose: 50.0 mg/kg/injection, schedule: Q01DX011 (sc), vehicle: steriod suspending solution, higher = larger tumour
[3] = endpoint: median survival time, dose: 25.0 mg/kg/injection, schedule: Q01DX009 (ip), vehicle: Klucel (hydroxypropylcellulose) (HPC), higher = longer survival
[4] = endpoint: mean tumor weight, dose: 50.0 mg/kg/injection, schedule: Q01DX011 (ip), vehicle: saline, higher = larger tumour
[5] = endpoint: mean tumor weight, dose: 200.0 mg/kg/injection, schedule: Q01DX011 (ip), vehicle: saline, higher = larger tumour
[6] = endpoint: mean tumor weight, dose: 400.0 mg/kg/injection, schedule: Q01DX011 (ip), vehicle: saline, higher = larger tumour

C[C@]12C=CC(=O)C=C1CC[C@@H]1[C@@H]2CC[C@]2(C)OC(=O)CC[C@@H]12
T/C (endpoint: mean tumor weight, dose: 12.5 mg/kg/injection, schedule: Q01DX011 (sc), vehicle: steriod suspending solution, higher = larger tumour): 75 % of control | T/C [1]: 102 % of control | T/C [2]: 53 % of control | T/C (endpoint: mean tumor weight, dose: 100.0 mg/kg/injection, schedule: Q01DX011 (sc), vehicle: steriod suspending solution, higher = larger tumour): 97 % of control

CC(=O)OC(C)(C)/C=C/C(=O)[C@](C)(O)[C@H]1[C@H](O)C[C@@]2(C)[C@@H]3CC=C4[C@@H](CC[C@H](O)C4(C)C)[C@]3(CO)C(=O)C[C@]12C
T/C (endpoint: mean tumor weight, dose: 0.57 mg/kg/injection, schedule: Q01DX011 (ip), vehicle: saline, higher = larger tumour): 67 % of control

CC1=C(/C=C/C(C)=C/C=C/C(C)=C/CO)C(C)(C)CCC1
T/C (endpoint: median survival time, dose: 4.0 mg/kg/injection, schedule: Q01DX005 (ip), vehicle: saline with Tween-80, higher = longer survival): 108 % of control | T/C (endpoint: median survival time, dose: 12.5 mg/kg/injection, schedule: Q01DX005 (ip), vehicle: saline with Tween-80, higher = longer survival): 109 % of control | T/C (endpoint: median survival time, dose: 16.0 mg/kg/injection, schedule: Q01DX005 (ip), vehicle: saline with Tween-80, higher = longer survival): 111 % of control | T/C (endpoint: median survival time, dose: 32.0 mg/kg/injection, schedule: Q01DX005 (ip), vehicle: saline with Tween-80, higher = longer survival): 115 % of control | T/C (endpoint: median survival time, dose: 64.0 mg/kg/injection, schedule: Q01DX005 (ip), vehicle: saline with Tween-80, higher = longer survival): 191 % of control | T/C (endpoint: median survival time, dose: 128.0 mg/kg/injection, schedule: Q01DX005 (ip), vehicle: saline with Tween-80, higher = longer survival): 92 % of control

Cc1nn(-c2ccccc2)c(N)c1C#N
T/C (endpoint: median survival time, dose: 12.5 mg/kg/injection, schedule: Q01DX009 (ip), vehicle: other, higher = longer survival): 94 % of control | T/C (endpoint: median survival time, dose: 25.0 mg/kg/injection, schedule: Q01DX009 (ip), vehicle: other, higher = longer survival): 98 % of control and 100 % of control | T/C (endpoint: median survival time, dose: 50.0 mg/kg/injection, schedule: Q01DX009 (ip), vehicle: other, higher = longer survival): 97 % of control | T/C (endpoint: median survival time, dose: 100.0 mg/kg/injection, schedule: Q01DX009 (ip), vehicle: other, higher = longer survival): 100 % of control | T/C (endpoint: median survival time, dose: 200.0 mg/kg/injection, schedule: Q01DX009 (ip), vehicle: other, higher = longer survival): 100 % of control | T/C (endpoint: median survival time, dose: 400.0 mg/kg/injection, schedule: Q01DX009 (ip), vehicle: other, higher = longer survival): 98 % of control

CC(=O)[C@@]1(O)CC[C@H]2[C@@H]3C[C@H](C)C4=CC(=O)C=C[C@]4(C)[C@@]3(F)[C@@H](O)C[C@@]21C
T/C [1]: 28 % of control | T/C [2]: 18 % of control

CCCCOB(/C=C/Sc1ccccc1)OCCCC
T/C (endpoint: median survival time, dose: 50.0 mg/kg/injection, schedule: Q01DX009 (ip), vehicle: saline with Tween-80, higher = longer survival): 95 % of control

CC1CN1P(=O)(N1CC1C)N1CC1C (stereo not given)
T/C (endpoint: median survival time, dose: 6.25 mg/kg/injection, schedule: Q01DX009 (ip), vehicle: saline, higher = longer survival): 98 % of control | T/C (endpoint: median survival time, dose: 12.5 mg/kg/injection, schedule: Q01DX009 (ip), vehicle: saline, higher = longer survival): 90 % of control | T/C (endpoint: median survival time, dose: 25.0 mg/kg/injection, schedule: Q01DX009 (ip), vehicle: saline, higher = longer survival): 89 % of control

CC(=O)OC(C)(C)/C=C/C(=O)[C@](C)(O)[C@H]1[C@H](O)C[C@@]2(C)[C@@H]3CC=C4[C@@H](C=C(O)C(=O)C4(C)C)[C@]3(C)C(=O)C[C@]12C
T/C (endpoint: mean tumor weight, dose: 0.4 mg/kg/injection, schedule: Q01DX011 (ip), vehicle: carboxymethylcellulose (CMC), higher = larger tumour): 59 % of control | T/C (endpoint: mean tumor weight, dose: 0.8 mg/kg/injection, schedule: Q01DX011 (ip), vehicle: carboxymethylcellulose (CMC), higher = larger tumour): 78 % of control | T/C (endpoint: mean tumor weight, dose: 1.6 mg/kg/injection, schedule: Q01DX011 (ip), vehicle: carboxymethylcellulose (CMC), higher = larger tumour): 26 % of control | T/C (endpoint: mean tumor weight, dose: 3.2 mg/kg/injection, schedule: Q01DX011 (ip), vehicle: carboxymethylcellulose (CMC), higher = larger tumour): 27 % of control | T/C (endpoint: mean tumor weight, dose: 3.2 mg/kg/injection, schedule: Q01DX011 (ip), vehicle: saline, higher = larger tumour): 58 % of control | T/C (endpoint: mean tumor weight, dose: 6.4 mg/kg/injection, schedule: Q01DX011 (ip), vehicle: saline, higher = larger tumour): 33 % of control | T/C (endpoint: mean tumor weight, dose: 12.8 mg/kg/injection, schedule: Q01DX011 (ip), vehicle: saline, higher = larger tumour): 52 % of control

O=NN(CCCl)C(=O)Nc1cccc(O)c1
T/C [3]: 116 % of control

COc1cccc2c1C(=O)c1c(O)c3c(c(O)c1C2=O)C[C@@](O)(C(C)=O)C[C@@H]3OC1CC(N)C(O)C(C)O1 (stereo not given in full)
T/C (endpoint: mean tumor weight, dose: 0.6 mg/kg/injection, schedule: Q01DX011 (ip), vehicle: saline, higher = larger tumour): 85 % of control | T/C (endpoint: mean tumor weight, dose: 1.0 mg/kg/injection, schedule: Q01DX011 (sc), vehicle: steriod suspending solution, higher = larger tumour): 116 % of control | T/C (endpoint: mean tumor weight, dose: 1.2 mg/kg/injection, schedule: Q01DX011 (ip), vehicle: saline, higher = larger tumour): 89 % of control | T/C (endpoint: mean tumor weight, dose: 1.8 mg/kg/injection, schedule: Q01DX011 (ip), vehicle: saline, higher = larger tumour): 69 % of control and 81 % of control | T/C (endpoint: mean tumor weight, dose: 2.7 mg/kg/injection, schedule: Q01DX011 (ip), vehicle: saline, higher = larger tumour): 56 % of control | T/C (endpoint: mean tumor weight, dose: 5.0 mg/kg/injection, schedule: Q01DX011 (sc), vehicle: steriod suspending solution, higher = larger tumour): 81 % of control | T/C (endpoint: median survival time, dose: 0.12 mg/kg/injection, schedule: Q01DX009 (ip), vehicle: saline, higher = longer survival): 101 % of control and 104 % of control and 110 % of control | T/C (endpoint: median survival time, dose: 125.0 micrograms/kg/injection, schedule: Q01DX009 (ip), vehicle: saline, higher = longer survival): 92 % of control | T/C (endpoint: median survival time, dose: 500.0 micrograms/kg/injection, schedule: Q01DX009 (ip), vehicle: saline, higher = longer survival): 100 % of control | T/C (endpoint: median survival time, dose: 1000.0 micrograms/kg/injection, schedule: Q01DX009 (ip), vehicle: saline, higher = longer survival): 90 % of control | T/C (endpoint: median survival time, dose: 2000.0 micrograms/kg/injection, schedule: Q01DX009 (ip), vehicle: saline, higher = longer survival): 97 % of control

CS(=O)(=O)OCC(O)C(O)C(O)C(O)COS(C)(=O)=O (stereo not given)
T/C [4]: 86 % of control and 97 % of control | T/C [5]: 54 % of control and 60 % of control | T/C [6]: 58 % of control

NCCCNCCSP(=O)(O)O
T/C (endpoint: median survival time, dose: 300.0 mg/kg/injection, schedule: Q01DX001 (ip), vehicle: saline, higher = longer survival): 93 % of control and 100 % of control | T/C (endpoint: median survival time, dose: 500.0 mg/kg/injection, schedule: Q01DX001 (ip), vehicle: saline, higher = longer survival): 77 % of control and 78 % of control

C[N+](C)(C)CCOC(=O)/C=C/c1cnc[nH]1
T/C (endpoint: median survival time, dose: 5.0 mg/kg/injection, schedule: Q01DX009 (ip), vehicle: saline, higher = longer survival): 102 % of control | T/C (endpoint: median survival time, dose: 10.0 mg/kg/injection, schedule: Q01DX009 (ip), vehicle: saline, higher = longer survival): 94 % of control | T/C (endpoint: median survival time, dose: 20.0 mg/kg/injection, schedule: Q01DX009 (ip), vehicle: saline, higher = longer survival): 95 % of control

CCOC(=O)C1C(=O)C(CN(CCCl)CCCl)C(=O)C(C(=O)OCC)C1c1ccc(O)cc1 (stereo not given)
T/C (endpoint: median survival time, dose: 3.12 mg/kg/injection, schedule: Q01DX009 (ip), vehicle: Klucel (hydroxypropylcellulose) (HPC), higher = longer survival): 94 % of control | T/C (endpoint: median survival time, dose: 6.25 mg/kg/injection, schedule: Q01DX009 (ip), vehicle: Klucel (hydroxypropylcellulose) (HPC), higher = longer survival): 98 % of control | T/C (endpoint: median survival time, dose: 12.5 mg/kg/injection, schedule: Q01DX009 (ip), vehicle: Klucel (hydroxypropylcellulose) (HPC), higher = longer survival): 100 % of control | T/C [3]: 94 % of control

COc1ccc(CN2CCCN(Cc3ccc(OC)cc3)C2c2ccccc2)cc1
T/C (endpoint: mean tumor weight, dose: 111.0 mg/kg/injection, schedule: Q01DX011 (ip), vehicle: other, higher = larger tumour): 120 % of control | T/C (endpoint: mean tumor weight, dose: 250.0 mg/kg/injection, schedule: Q01DX011 (ip), vehicle: other, higher = larger tumour): 83 % of control

CC1(C)[C@@H]2CC[C@]1(C)[C@H](O)C2
T/C [4]: 100 % of control | T/C (endpoint: mean tumor weight, dose: 100.0 mg/kg/injection, schedule: Q01DX011 (ip), vehicle: saline, higher = larger tumour): 95 % of control | T/C [5]: 79 % of control | T/C [6]: 100 % of control

O=C(O)CCC(=O)O
T/C (endpoint: median survival time, dose: 0.62 mg/kg/injection, schedule: Q01DX009 (ip), vehicle: water, higher = longer survival): 110 % of control | T/C (endpoint: median survival time, dose: 1.25 mg/kg/injection, schedule: Q01DX009 (ip), vehicle: water, higher = longer survival): 103 % of control | T/C (endpoint: median survival time, dose: 2.5 mg/kg/injection, schedule: Q01DX009 (ip), vehicle: water, higher = longer survival): 93 % of control | T/C (endpoint: median survival time, dose: 5.0 mg/kg/injection, schedule: Q01DX009 (ip), vehicle: water, higher = longer survival): 93 % of control and 108 % of control | T/C (endpoint: median survival time, dose: 10.0 mg/kg/injection, schedule: Q01DX009 (ip), vehicle: water, higher = longer survival): 102 % of control and 107 % of control | T/C (endpoint: median survival time, dose: 20.0 mg/kg/injection, schedule: Q01DX009 (ip), vehicle: water, higher = longer survival): 106 % of control and 115 % of control and 97 % of control | T/C (endpoint: median survival time, dose: 40.0 mg/kg/injection, schedule: Q01DX009 (ip), vehicle: water, higher = longer survival): 96 % of control and 103 % of control and 108 % of control | T/C (endpoint: median survival time, dose: 80.0 mg/kg/injection, schedule: Q01DX009 (ip), vehicle: water, higher = longer survival): 104 % of control

O=S1(=O)CCCO1
T/C (endpoint: mean tumor weight, dose: 10.0 mg/kg/injection, schedule: Q01DX011 (ip), vehicle: saline, higher = larger tumour): 109 % of control | T/C (endpoint: mean tumor weight, dose: 20.0 mg/kg/injection, schedule: Q01DX011 (ip), vehicle: saline, higher = larger tumour): 102 % of control | T/C (endpoint: mean tumor weight, dose: 40.0 mg/kg/injection, schedule: Q01DX011 (ip), vehicle: saline, higher = larger tumour): 78 % of control

NC(=S)c1cn(C2OC(CO)C(O)C2O)c2ncnc(N)c12 (stereo not given)
T/C (endpoint: median survival time, dose: 0.31 mg/kg/injection, schedule: Q01DX009 (ip), vehicle: saline with Tween-80, higher = longer survival): 111 % of control | T/C (endpoint: median survival time, dose: 0.62 mg/kg/injection, schedule: Q01DX009 (ip), vehicle: saline with Tween-80, higher = longer survival): 88 % of control | T/C (endpoint: median survival time, dose: 2.5 mg/kg/injection, schedule: Q01DX009 (ip), vehicle: saline with Tween-80, higher = longer survival): 94 % of control and 101 % of control | T/C (endpoint: median survival time, dose: 5.0 mg/kg/injection, schedule: Q01DX009 (ip), vehicle: saline with Tween-80, higher = longer survival): 101 % of control
